Measured values as given in patent US8029793B2, “Methods for inhibiting cell proliferation” (Chugai Seiyaku Kabushiki Kaisha, priority 2000, dated 2011).

Legend:
KTA-2 cell line = assay: PTHrP stimulation test (3H-TdR incorporation); type: cell-based, human; conditions: PTHrP(34-53) 0, 1, 10, 100 ng/mL, trypsin treatment at 24 hours and at 48 hours after addition
Method: (§1) Briefly, anaplastic thyroid cell lines TTA-1 (hatched bars), TTA-2 (solid bars), and KTA-2 (unfilled bars) were seeded at 1×10^4 cells per well in a 96-well plate. Cells were incubated for two days in complete medium and then shifted to serum-free medium for day 3. Cells were treated with PTHrP (34-53) at 0, 1, 10, and 100 ng/mL and treated with trypsin 24 (top panel) and 48 (bottom panel) hours later. Cells were labeled with ^3H-TdR for 6 hours (0.25 μCi/well) and incorporation of label was measured by liquid scintillation counting. Measurements were performed in triplicate and average results are presented.
(§2) After treating TTA-1, TTA-2, and KTA-2 with trypsin, the number of viable cells not stained with trypan blue was counted with a hemocytometer. Subsequently, 1×10^4 cells were inoculated on a 96-well multi-plate (Falcon), and then cultured in a CO2 incubator at 37° C. for 2 days. On day 2 after culturing, the culture solution was replaced by a serum-free medium, and then culturing was performed for 1 day. PTHrP(34-53) (Calbiochem) at concentrations of 0 (PTHrP-free), 1, 10 and 100 ng/mL were added, followed by treatment with trypsin 24 and 48 hours later.
(§3) The cells were labeled with ^3H-TdR for 6 hours (0.25 μCi/well), collected, and then incorporation of ^3H-TdR was measured using a liquid scintillation counter. […]

TTA-1 cell line = assay: PTHrP stimulation test (3H-TdR incorporation); type: cell-based, human; conditions: PTHrP(34-53) 0, 1, 10, 100 ng/mL, trypsin treatment at 24 hours and at 48 hours after addition
Method: as §1, §2, §3

Question: Which “cell proliferation (incorporation of 3H-TdR)” value (KTA-2 cell line) does the source give for “PTHrP(34-53): peptide fragment consisting the sequence of amino acids 34 to 53 of parathyroid hormone related peptide (Calbiochem) (AEIRATSEVSPNSKPSPNTK; listed as Homo sapiens)” here?
Answer: proliferate depending on the concentration of PTHrP

Question: What about the “cell proliferation (incorporation of 3H-TdR)” value (TTA-1 cell line) of the same substance?
Answer: proliferate depending on the concentration of PTHrP
